Measurements as given in PubChem BioAssay AID1845207 (Molecular Pharmacology Branch, DTP, NCI, 2023).

Test system: NCI-H1876 tumor spheroid viability
Experiment: Anticancer human tumor NCI-H1876 cell line growth inhibition;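 note: spheroids exposed to compounds for seven days before the viability read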;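 for viability, T/C: percent of DMSO vehicle control viability so 100% = vehicle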
Conditions: spheroids with HUVEC and MSC; for IC50: curve of first compound; for viability, T/C: stronger effect = lower value
Summary of the method: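 Single agents and combinations were tested on spheroids built from tumor cells plus HUVEC and hMSC, at half-log dilutions starting at or near clinical Cmax, else 10 microM; final DMSO 0.25% (v/v).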

[1] = second compound 1 µM, first compound 0.00949 µM
[2] = second compound 1 µM, first compound 0.03 µM
[3] = second compound 1 µM, first compound 0.0949 µM
[4] = second compound 1 µM, first compound 0.3 µM
[5] = second compound 1 µM, first compound 0.949 µM
[6] = second compound 1 µM, first compound 3 µM
[7] = second compound 3.16 µM, first compound 0.00949 µM
[8] = second compound 3.16 µM, first compound 0.03 µM
[9] = second compound 3.16 µM, first compound 0.0949 µM
[10] = second compound 3.16 µM, first compound 0.3 µM
[11] = second compound 3.16 µM, first compound 0.949 µM
[12] = second compound 3.16 µM, first compound 3 µM
[13] = second compound 10 µM, first compound 0.00949 µM
[14] = second compound 10 µM, first compound 0.03 µM
[15] = second compound 10 µM, first compound 0.0949 µM
[16] = second compound 10 µM, first compound 0.3 µM
[17] = second compound 10 µM, first compound 0.949 µM
[18] = second compound 10 µM, first compound 3 µM
[19] = second compound 31.6 µM, first compound 0.00949 µM
[20] = second compound 31.6 µM, first compound 0.03 µM
[21] = second compound 31.6 µM, first compound 0.0949 µM
[22] = second compound 31.6 µM, first compound 0.3 µM
[23] = second compound 31.6 µM, first compound 0.949 µM
[24] = second compound 31.6 µM, first compound 3 µM
[25] = second compound 100 µM, first compound 0.00949 µM
[26] = second compound 100 µM, first compound 0.03 µM
[27] = second compound 100 µM, first compound 0.0949 µM
[28] = second compound 100 µM, first compound 0.3 µM
[29] = second compound 100 µM, first compound 0.949 µM
[30] = second compound 100 µM, first compound 3 µM

## CC(C)n1c(=O)n(C)c2cnc3cc(F)c(-c4ccc(OCCCN5CCCCC5)nc4)cc3c21 + Cn1nnc2c(C(N)=O)ncn2c1=O
Second compound 1 µM
  IC50: 411 nM
Second compound 3.16 µM
  IC50: 517 nM
Second compound 10 µM
  IC50: 571 nM
Second compound 31.6 µM
  IC50: 623 nM
Second compound 100 µM
  IC50: 176 nM
Second compound 1 µM, first compound 0.0316 µM
  viability, T/C: 87%
Second compound 1 µM, first compound 0.1 µM
  viability, T/C: 68.1%
Second compound 1 µM, first compound 0.316 µM
  viability, T/C: 51.6%
Second compound 1 µM, first compound 1 µM
  viability, T/C: 39.2%
Second compound 1 µM, first compound 3.16 µM
  viability, T/C: 27.7%
Second compound 1 µM, first compound 10 µM
  viability, T/C: 12.1%
Second compound 3.16 µM, first compound 0.0316 µM
  viability, T/C: 88.9%
Second compound 3.16 µM, first compound 0.1 µM
  viability, T/C: 70.7%
Second compound 3.16 µM, first compound 0.316 µM
  viability, T/C: 54.7%
Second compound 3.16 µM, first compound 1 µM
  viability, T/C: 42.6%
Second compound 3.16 µM, first compound 3.16 µM
  viability, T/C: 29.6%
Second compound 3.16 µM, first compound 10 µM
  viability, T/C: 12.8%
Second compound 10 µM, first compound 0.0316 µM
  viability, T/C: 85.5%
Second compound 10 µM, first compound 0.1 µM
  viability, T/C: 68.6%
Second compound 10 µM, first compound 0.316 µM
  viability, T/C: 55.4%
Second compound 10 µM, first compound 1 µM
  viability, T/C: 41.6%
Second compound 10 µM, first compound 3.16 µM
  viability, T/C: 36.1%
Second compound 10 µM, first compound 10 µM
  viability, T/C: 11.4%
Second compound 31.6 µM, first compound 0.0316 µM
  viability, T/C: 84.8%
Second compound 31.6 µM, first compound 0.1 µM
  viability, T/C: 72.5%
Second compound 31.6 µM, first compound 0.316 µM
  viability, T/C: 58.7%
Second compound 31.6 µM, first compound 1 µM
  viability, T/C: 42.8%
Second compound 31.6 µM, first compound 3.16 µM
  viability, T/C: 29.7%
Second compound 31.6 µM, first compound 10 µM
  viability, T/C: 12.8%
Second compound 100 µM, first compound 0.0316 µM
  viability, T/C: 62.4%
Second compound 100 µM, first compound 0.1 µM
  viability, T/C: 55.2%
Second compound 100 µM, first compound 0.316 µM
  viability, T/C: 43.2%
Second compound 100 µM, first compound 1 µM
  viability, T/C: 35.3%
Second compound 100 µM, first compound 3.16 µM
  viability, T/C: 25.9%
Second compound 100 µM, first compound 10 µM
  viability, T/C: 10.2%

## CNCc1ccc(-c2cc(-c3nc(-c4ccc(S(=O)(=O)C(C)C)cc4)cnc3N)on2)cc1 + Cn1nnc2c(C(N)=O)ncn2c1=O
Second compound 1 µM
  IC50: 121 nM
Second compound 3.16 µM
  IC50: 83.7 nM
Second compound 10 µM
  IC50: 92.3 nM
Second compound 31.6 µM
  IC50: 89.3 nM
Second compound 100 µM
  IC50: < 9.49 nM
[1]
  viability, T/C: 82%
[2]
  viability, T/C: 70.7%
[3]
  viability, T/C: 54.9%
[4]
  viability, T/C: 33.6%
[5]
  viability, T/C: 12.6%
[6]
  viability, T/C: 0.35%
[7]
  viability, T/C: 95.4%
[8]
  viability, T/C: 54.9%
[9]
  viability, T/C: 55.4%
[10]
  viability, T/C: 29.7%
[11]
  viability, T/C: 15.2%
[12]
  viability, T/C: 0.44%
[13]
  viability, T/C: 86.9%
[14]
  viability, T/C: 65.2%
[15]
  viability, T/C: 54%
[16]
  viability, T/C: 29.9%
[17]
  viability, T/C: 13.1%
[18]
  viability, T/C: 11%
[19]
  viability, T/C: 82%
[20]
  viability, T/C: 57.8%
[21]
  viability, T/C: 58.2%
[22]
  viability, T/C: 30.1%
[23]
  viability, T/C: 51.8%
[24]
  viability, T/C: 45.7%
[25]
  viability, T/C: 50.8%
[26]
  viability, T/C: 43%
[27]
  viability, T/C: 36.5%
[28]
  viability, T/C: 20.9%
[29]
  viability, T/C: 47.9%
[30]
  viability, T/C: 0.26%

## Cc1sc2c(c1C)C(c1ccc(Cl)cc1)=NC(CC(=O)Nc1ccc(O)cc1)c1nnc(C)n1-2 (stereo not given) + Cn1nnc2c(C(N)=O)ncn2c1=O
Second compound 1 µM
  IC50: 55.8 nM
Second compound 3.16 µM
  IC50: 176 nM
Second compound 10 µM
  IC50: 89.4 nM
Second compound 31.6 µM
  IC50: 73.7 nM
Second compound 100 µM
  IC50: 23.5 nM
[1]
  viability, T/C: 85.6%
[2]
  viability, T/C: 56%
[3]
  viability, T/C: 45%
[4]
  viability, T/C: 27%
[5]
  viability, T/C: 15.7%
[6]
  viability, T/C: 8.48%
[7]
  viability, T/C: 84%
[8]
  viability, T/C: 75.2%
[9]
  viability, T/C: 54.2%
[10]
  viability, T/C: 50.6%
[11]
  viability, T/C: 15.3%
[12]
  viability, T/C: 10.5%
[13]
  viability, T/C: 87.3%
[14]
  viability, T/C: 62.2%
[15]
  viability, T/C: 55.1%
[16]
  viability, T/C: 31%
[17]
  viability, T/C: 15.1%
[18]
  viability, T/C: 9%
[19]
  viability, T/C: 87.3%
[20]
  viability, T/C: 75.6%
[21]
  viability, T/C: 39.4%
[22]
  viability, T/C: 25.6%
[23]
  viability, T/C: 13.2%
[24]
  viability, T/C: 8.31%
[25]
  viability, T/C: 63.4%
[26]
  viability, T/C: 44.6%
[27]
  viability, T/C: 34.2%
[28]
  viability, T/C: 19.6%
[29]
  viability, T/C: 9.06%
[30]
  viability, T/C: 4.09%
